Experimental data: PMC8922279, “Identification of β-Lactams Active against Mycobacterium tuberculosis by a Consortium of Pharmaceutical Companies and Academic Institutions” (ACS Infectious Diseases, 2022)
Read-outs that look alike come from different tables or passages of the source.

Tests used:
[1] = female, 129sv DHP-1 knockout, mouse, in vivo
in vivo [2] = settings: female, 129sv DHP-1 knockout, mouse, sc, 50 mg/kg
wild-type Mtb H37Rv = format: in vivo, 129sv DHP-1 knockout mice; settings: for Log10 CFU per mouse (lungs), Mean: 50 mg/kg sc bid + clavulanate 100 mg/kg po bid, days 9-15, lungs day 16, untreated day 16 mean 9.1
plasma proteins [3] = assay: Plasma protein binding (equilibrium dialysis), human; settings: 2 μM
Mtb H37Rv [4] = assay: MIC90 against nonreplicating (NR, 4-stress) Mtb H37Rv, with or without clavulanate; format: cell-based, Mycobacterium tuberculosis; settings: 4-stress nonreplicating, Table S4; for Mtb H37Rv NR + CLAV (MIC90): clavulanate 4 μg/mL; for Mtb H37Rv NR (MIC90): no clavulanate
plasma proteins [5] = assay: Plasma protein binding (equilibrium dialysis), cynomolgus monkey; settings: 2 μM
Mtb H37Rv [6] = assay: MIC90 against replicating (R) Mtb H37Rv, with or without clavulanate; format: cell-based, Mycobacterium tuberculosis; settings: Table S4; for Mtb H37Rv R + CLAV (MIC90): clavulanate 4 μg/mL; for Mtb H37Rv R (MIC90): no clavulanate
[7] = In vitro plasma stability, human plasma; settings: 2 μM, 37 °C, time point 120 min
[8] = Stability in fasted simulated intestinal fluid (FaSSIF); settings: 10 μM, pH 6.5, room temperature
[9] = Mouse PK in uninfected CD-1 mice (i.v. and p.o.)
C. albicans = assay: Microbial spectrum, C. albicans; format: cell-based, Candida albicans; settings: no clavulanate; Table S4
S. aureus = assay: Microbial spectrum, S. aureus; format: cell-based, Staphylococcus aureus; settings: clavulanate 4 μg/mL; Table S4
E. coli = assay: Microbial spectrum, E. coli; format: cell-based, Escherichia coli; settings: clavulanate 4 μg/mL; Table S4
[10] = In vitro plasma stability, beagle dog plasma; settings: 2 μM, 37 °C, time point 120 min
P. aeruginosa = assay: Microbial spectrum, P. aeruginosa; format: cell-based, Pseudomonas aeruginosa; settings: clavulanate 4 μg/mL; Table S4
[11] = In vitro plasma stability, CD-1 mouse plasma; settings: 2 μM, 37 °C, time point 120 min
plasma proteins [12] = assay: Plasma protein binding (equilibrium dialysis), beagle dog; settings: 2 μM
Caco-2 cells = assay: Caco-2 permeability / efflux transporter substrate; settings: for Caco-2 Mean Papp A to B / Caco-2 Mean Papp B to A: 3 μM, pH 7.4, 120 min; for Caco-2 Mean Recovery % A to B / Caco-2 Mean Recovery % B to A / Caco-2 Rank Papp / Caco-2 Efflux Ratio / Efflux Transporter Substrate: Caco-2
[13] = In vitro plasma stability, cynomolgus monkey plasma; settings: 2 μM, 37 °C, time point 120 min
plasma proteins [14] = assay: Plasma protein binding (equilibrium dialysis), SD rat; settings: 2 μM
[15] = In vitro plasma stability, SD rat plasma; settings: 2 μM, 37 °C, time point 120 min
plasma proteins [16] = assay: Plasma protein binding (equilibrium dialysis), CD-1 mouse; settings: 2 μM
[17] = Stability in simulated gastric fluid (SGF); settings: 10 μM, pH 1.2, room temperature
[18] = 300 mg/kg sc, uninfected DHP-1 mice
in vivo [19] = settings: DHP-1 knockout, mouse, sc, 300 mg/kg

SMILES | % bound to plasma, Human (plasma proteins [3]) [%] | Mtb H37Rv NR + CLAV (MIC90) (Mtb H37Rv [4]) [µM] | Mtb H37Rv NR (MIC90) (Mtb H37Rv [4]) [µM] | % bound to plasma, Cynomolgus Monkey (plasma proteins [5]) [%] | Mtb H37Rv R + CLAV (MIC90) (Mtb H37Rv [6]) [µM] | Mtb H37Rv R (MIC90) (Mtb H37Rv [6]) [µM] | Plasma stability % Remaining, Human [7] [%] | FaSSIF Stability, % remaining, 6h [8] [%] | FaSSIF Stability, % remaining, 24h [8] [%] | C.albicans R (MIC90) (C. albicans) [µM] | S.aureus R + CLAV (MIC90) (S. aureus) [µM] | E.coli R + CLAV (MIC90) (E. coli) [µM] | Plasma stability % Remaining, Dog [10] [%] | P.aeruginosa R + CLAV (MIC90) (P. aeruginosa) [µM] | Plasma stability % Remaining, Mouse [11] [%] | % bound to plasma, Beagle Dog (plasma proteins [12]) [%] | Caco-2 Mean Papp A to B (Caco-2 cells) | Caco-2 Mean Papp B to A (Caco-2 cells) | Caco-2 Mean Recovery % A to B (Caco-2 cells) [%] | Caco-2 Mean Recovery % B to A (Caco-2 cells) [%] | other results
C=CC1=C(C(=O)O)N2C(=O)[C@@H](NC(=O)/C(=N\O)c3csc(N)n3)[C@H]2SC1 [Cefdinir, reference compound] | – | – | – | – | – | – | – | – | – | – | – | – | – | – | – | – | – | – | – | – | Tlast [1]: 1.0 h; AUC(0-t) (in vivo [2]): 4630 ng·h/mL; Cmax (in vivo [2]): 8730 ng/mL; Tmax (in vivo [2]): 30 min; Log10 CFU per mouse (lungs), Mean (wild-type Mtb H37Rv): 8.5 Log10 CFU; effect on lung CFU (in words) (wild-type Mtb H37Rv; mouse, in vivo): lower lung CFU count compared to untreated mice
O=C(O)C1=C(CSc2cccc[n+]2[O-])CS[C@@H]2[C@H](NC(=O)C(F)c3ccccc3)C(=O)N12 (stereo partly shown) [TBBL-0000004] | 74.1 | 2.3 | 1.7 | 78.2 | 1.5 | 1.2 | 81.0 | 88.58 | 94.96 | > 100 | 1.4 | > 100 | 64.1 | > 100 | 84.1 | 59.2 | < 0.12 10-6 cm/s | < 0.11 10-6 cm/s | < 98.09 | < 112.70 | AUC[0-5h] ([9]; i.v. dosing (5 mg/kg)): 5075 ng·h/mL; Vd ([9]; i.v. dosing (5 mg/kg)): 1.02 L/kg; clearance ([9]; i.v. dosing (5 mg/kg)): 16.4 mL/min/kg; half-life ([9]; i.v. dosing (5 mg/kg)): 32.4 min; k el ([9]; i.v. dosing (5 mg/kg)): 0.96 h⁻¹; Caco-2 Rank Papp (Caco-2 cells): Low; Plasma stability % Remaining, Monkey [13]: 103.9%; % bound to plasma, SD Rat (plasma proteins [14]): 62.0%; Plasma stability % Remaining, Rat [15]: 71.0%; % bound to plasma, CD-1 Mouse (plasma proteins [16]): 65.5%
CCc1nnc(SCC2=C(C(=O)O)N3C(=O)[C@@H](NC(=O)Cc4ccc(C5=NCCN5)cc4)[C@H]3SC2)s1 [TBBL-0000310] | 60.7 | 92.2 | 90.4 | 56.2 | 0.5 | 16.4 | 78.9 | 98.8 | 95.07 | > 100 | 0.9 | 49.9 | 79.6 | > 100 | 82.2 | 30.5 | 0.46 10-6 cm/s | 0.43 10-6 cm/s | 99.13 | 102.93 | AUC[0-5h] ([9]; i.v. dosing (5 mg/kg)): 39113 ng·h/mL; Vd ([9]; i.v. dosing (5 mg/kg)): 0.09 L/kg; clearance ([9]; i.v. dosing (5 mg/kg)): 2.13 mL/min/kg; half-life ([9]; i.v. dosing (5 mg/kg)): 28.8 min; k el ([9]; i.v. dosing (5 mg/kg)): 1.45 h⁻¹; AUC[0-5h] ([9]; p.o. dosing (25 mg/kg)): 614 ng·h/mL; bioavailability ([9]; p.o. dosing (25 mg/kg)): 0.34%; SGF Stability, % remaining, 1h [17]: 86.27%; SGF Stability, % remaining, 24h [17]: 0.61%; Caco-2 Efflux Ratio (Caco-2 cells): 0.94; Caco-2 Rank Papp (Caco-2 cells): Low; Efflux Transporter Substrate (Caco-2 cells): Poor or no; Plasma stability % Remaining, Monkey [13]: 110.3%; % bound to plasma, SD Rat (plasma proteins [14]): 81.2%; Plasma stability % Remaining, Rat [15]: 80.0%; % bound to plasma, CD-1 Mouse (plasma proteins [16]): 49.9%
CCCc1nnc(SCC2=C(C(=O)O)N3C(=O)[C@@H](NC(=O)Cc4ccc(C(=N)N)cc4)[C@H]3SC2)s1 [TBBL-0000314] | 65.7 | > 100 | > 100 | 60.1 | 0.8 | 14.1 | 77.2 | 101.85 | 95.17 | > 100 | 1.6 | > 100 | 77.0 | > 100 | 76.2 | 46.7 | < 0.07 10-6 cm/s | < 0.06 10-6 cm/s | < 94.56 | < 107.68 | SGF Stability, % remaining, 1h [17]: 76.41%; SGF Stability, % remaining, 24h [17]: 1.85%; Caco-2 Rank Papp (Caco-2 cells): Low; Plasma stability % Remaining, Monkey [13]: 103.9%; % bound to plasma, SD Rat (plasma proteins [14]): 84.6%; Plasma stability % Remaining, Rat [15]: 73.3%; % bound to plasma, CD-1 Mouse (plasma proteins [16]): 67.9%
CNCc1ccccc1CC(=O)N[C@@H]1C(=O)N2C(C(=O)O)=C(CSc3nnnn3C)CS[C@H]12 [TBBL-0000468] | 21.1 | > 100 | > 100 | 21.9 | 5.4 | 16.4 | 73.6 | 83.23 | 56.36 | > 100 | 8.7 | > 100 | 77.2 | > 100 | 72.0 | 7.3 | < 0.25 10-6 cm/s | < 0.21 10-6 cm/s | < 102.74 | < 109.10 | SGF Stability, % remaining, 1h [17]: 101.42%; SGF Stability, % remaining, 24h [17]: 49.27%; Caco-2 Rank Papp (Caco-2 cells): Low; Plasma stability % Remaining, Monkey [13]: 101.7%; % bound to plasma, SD Rat (plasma proteins [14]): 39.1%; Plasma stability % Remaining, Rat [15]: 80.8%; % bound to plasma, CD-1 Mouse (plasma proteins [16]): 1.7%
NC(C(=O)N[C@@H]1C(=O)N2C(C(=O)O)=C(CSc3cccc[n+]3[O-])CS[C@H]12)c1ccc(O)cc1 (stereo partly shown) [TBBL-0000652] | – | – | – | – | – | – | – | – | – | – | – | – | – | – | – | – | – | – | – | – | Tlast [1]: 3.0 h; AUC(0-t) (in vivo [2]): 11500 ng·h/mL; Cmax (in vivo [2]): 8320 ng/mL; Tmax (in vivo [2]): 60 min; Comments (tolerability) [18]: Recovered at t= 8h; Tlast [18]: 2.0 to 4.0 h; AUC(0-t) (in vivo [19]): 29400 ± 32900 ng·h/mL; Cmax (in vivo [19]): 22200 ± 21700 ng/mL; Tmax (in vivo [19]): 60 to 120 min; Log10 CFU per mouse (lungs), Mean (wild-type Mtb H37Rv): 8.6 Log10 CFU; reduction of lung CFU compared to untreated control mice (wild-type Mtb H37Rv; mouse, in vivo): ~0.5 log10
NCc1ccccc1CC(=O)N[C@@H]1C(=O)N2C(C(=O)O)=C(CSc3nnnn3CCO)CS[C@H]12 [TBBL-0000656] | 23.3 | > 100 | > 100 | 22.0 | 2.1 | 5.8 | 75.1 | 89.32 | 70.9 | > 100 | > 100 | 9.8 | 74.7 | > 100 | 95.0 | 11.2 | < 0.12 10-6 cm/s | 0.27 10-6 cm/s | < 102.47 | 106.09 | SGF Stability, % remaining, 1h [17]: 87.12%; SGF Stability, % remaining, 24h [17]: 53.93%; Caco-2 Efflux Ratio (Caco-2 cells): > 2.26; Caco-2 Rank Papp (Caco-2 cells): Low; Efflux Transporter Substrate (Caco-2 cells): Likely; Plasma stability % Remaining, Monkey [13]: 85.7%; % bound to plasma, SD Rat (plasma proteins [14]): 50.2%; Plasma stability % Remaining, Rat [15]: 85.1%; % bound to plasma, CD-1 Mouse (plasma proteins [16]): 23.0%
